The values that follow come from US20040038947A1, “Method of treating ischemia/reperfusion injury with nitroxyl donors” (The Gov. of the U.S. of America as represented by the Sec. …, priority 2002, published 2004).

Series [1] deals with Isolated rat hearts. In words: Ventricular function (contracture, contractile recovery) of isolated rat hearts in 30 min global ischemia / 30 min reperfusion. Here is the method: Isolated heart perfusion. Each animal was anesthetized with 1 g/kg urethane i.p. 10 min after heparin (2,500 U, i.m.) treatment. The chest was opened, and the heart was rapidly excised, placed in ice-cold buffer solution and weighed. Isolated rat hearts were attached to the perfusion apparatus and retrogradely perfused with oxygenated buffer solution at 37° C. The hearts were instrumented as previously described in Rastaldo et al., “P-450 metabolite of arachidonic acid mediates bradykinin-induced negative inotropic effect,” Am. J. Physiol., 280:H2823-H2832 (2001), and Paolocci et al. “cGMP-independent inotropic effects of nitric oxide and peroxynitrite donors: potential role for nitrosylation,” Am. J. Physiol., 279: H1982-H1988 (2000). The flow was maintained constant (9±2 mL/min/g wet weight) to reach a typical coronary perfusion pressure of 85-90 mm Hg. A constant proportion of 10% of the flow rate was applied by means of one of two perfusion pumps (Terumo, Tokyo, Japan) using a 50 mL syringe connected to the aortic cannula. Drug applications (see Experimental Protocols) were performed by switching from the syringe containing buffer alone to the syringe of the other pump containing the drug dissolved in the vehicle at a concentration 10× to the desired final concentration in the heart. A small hole in the left ventricular wall allowed drainage of the thebesian flow, and a polyvinyl-chloride balloon was placed into the left ventricle and connected to an electromanometer for recording of left ventricular pressure (LVP). The hearts were electrically paced at 280-300 bpm and kept in a temperature-controlled chamber (37° C.). Coronary perfusion pressure (CPP) and coronary flow were monitored with a second electromanometer and an electromagnetic flow-probe, respectively, both placed along the perfusion line. Left ventricular pressure, coronary flow and coronary perfusion pressure were recorded using a TEAC R-71 recorder, digitized at 1000 Hz and analyzed off-line with DataQ-Instruments/CODAS software, which allowed quantification of the maximum rate of increase of LVP during systole (dP/dtmax).
Experimental Protocols. Hearts were allowed to stabilize for 30 min, and baseline parameters were recorded. Typically, coronary flow was adjusted within the first 10 min and kept constant from thereon. After 30 min stabilization, hearts were randomly assigned to one of the treatment groups reported below (n=12 in each group), and then subjected to 30 min global, no-flow ischemia, followed by 30 min of reperfusion (I/R) (see FIG. 1). Pacing of the hearts was stopped at the beginning of the ischemic period and restarted after the third minute of reperfusion.
Hearts in the control group (Group 1) were perfused with buffer for an additional 29 min after stabilization. Group 2 hearts were exposed to AS (1 μM final concentration) for 19 min followed by a 10 min buffer wash-out period. Group 3 hearts were exposed to DEA/NO (0.5 μM final concentration) administered in the same manner as AS. The concentration of DEA/NO was only one half of that of AS since DEA/NO releases up to two moles of […] per mole of donor molecule. In Group 4, a train of three cycles of 3 min global ischemia followed by 5 min of reperfusion was applied after the stabilization phase, followed by a final 10 min buffer wash-out period (IPC protocol).
Group 5 hearts were exposed to the vehicle (NaOH, final concentration 100 nM) used to dissolve both AS and DEA/NO. […]

Series [2] can be described thus: Nitroxyl donation pH. The series is classed as physicochemical. The note with it: donates from this pH to about 10. The text has this: “Nitroxyl donation pH” is the pH at which and above which a nitroxyl-donating compound donates nitroxyl.
Further, compounds are easily tested for nitroxyl donation with routine experiments. Although it is impractical to directly measure whether nitroxyl is donated, several tests are accepted for determining whether a compound donates nitroxyl. For example, the compound of interest can be placed in solution, for example in water, in a sealed container. After sufficient time for disassociation has elapsed, such as from several minutes to several hours, the headspace gas is withdrawn and analyzed to determine its composition, such as by gas chromatography and/or mass spectroscopy. […] Nitroxyl donation also can be detected by exposing the target donor to metmyoglobin (Mb^3+). Nitroxyl reacts with Mb^3+ to form an Mb^2+-NO complex, which can be detected by changes in the ultraviolet/visible spectrum or by Electron Paramagnetic Resonance (EPR). […]
Testing for nitroxyl donation in some cases is performed at a range of pHs to determine the nitroxyl donation pH of the nitroxyl-donating compound. […] After the lowest pH at which nitroxyl donation occurs in a first set of tests is found, additional tests can be performed with narrower ranges of pH around the first determined nitroxyl donation pH to obtain a more specific nitroxyl donation pH. […]

Turning to `[Na+].[Na+].[O-][N+]([O-])=NO` [AS, sodium trioxodinitrate], in series [1] (30 min ischemia, 30 min reperfusion, vs pre-ischemic value, controls 38%, AS 1 μM pre-ischemic, FIG. 3A), the “Post-ischemic recovery of developed LVP” value is “about 55%”. In addition, the “Post-ischemic recovery of dP/dtmax” value in series [1] (30 min ischemia, 30 min reperfusion, vs pre-ischemic value, controls 39%, AS 1 μM pre-ischemic, FIG. 3B) stood at 57%. Besides, the “Maximal increment of LVEDP during reperfusion” value in series [1] (compared to control, vehicle, NAC and NAC+AS treated hearts (p<0.05), FIG. 2B) was “significantly lower”. Besides, the “Nitroxyl donation pH (pH at and above which nitroxyl is donated)” value in series [2] was “about 3”.
